The source of these data is ChEMBL document CHEMBL1130598, “Pyrroles and other heterocycles as inhibitors of p38 kinase” (Bioorg Med Chem Lett, 1998).

For assay [1], the target named is Mitogen-activated protein kinase 14 (Rattus norvegicus, UniProt P70618). Nature of the assay: Inhibitory potency evaluated against rat p38 kinase.
The species named for assay [2] is Rattus norvegicus. Briefly: Inhibition of secondary paw swelling in rat adjuvant arthritis model. The assay is classed as functional.
Assay [3] is filed under the species Rattus norvegicus. Nature of the assay: Inhibition of secondary paw swelling in rat adjuvant arthritis model […]. The assay is classed as functional.
In assay [4] the target is MAP kinase p38 (Homo sapiens) (UniProt O15264+Q15759+Q16539+P53778). Nature of the assay: Inhibition of p38 MAP kinase. The assay is classed as protein assay.

Mitogen-activated protein kinase 14, sequence (P70618 whole entry): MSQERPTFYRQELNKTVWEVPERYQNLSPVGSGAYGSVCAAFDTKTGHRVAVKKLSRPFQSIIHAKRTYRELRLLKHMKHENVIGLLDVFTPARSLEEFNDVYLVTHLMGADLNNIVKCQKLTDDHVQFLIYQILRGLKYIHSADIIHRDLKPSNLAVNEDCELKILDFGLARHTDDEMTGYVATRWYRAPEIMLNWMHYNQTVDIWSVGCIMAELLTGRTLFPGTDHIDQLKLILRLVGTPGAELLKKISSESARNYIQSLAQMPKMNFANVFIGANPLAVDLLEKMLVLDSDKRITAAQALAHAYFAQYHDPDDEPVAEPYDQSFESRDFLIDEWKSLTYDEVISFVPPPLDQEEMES

`Oc1ccc(-c2[nH]c(-c3ccccc3)cc2-c2ccncc2)cc1` returned a 50% inhibitory concentration (IC50) in assay [1] of 2400 nM.
The same measure, in the same setting: to `CSc1ccc(-c2[nH]c(-c3ccccc3)cc2-c2ccncc2)cc1` belongs 690 nM; to `O=[N+]([O-])c1ccc(-c2cc(-c3ccncc3)c(-c3ccccc3)[nH]2)cc1`, 6.1 nM.
On the same count and under the same terms, to `O=C(CCN1CCCCC1)Nc1ccc(-c2cc(-c3ccncc3)c(-c3ccccc3)[nH]2)cc1` belongs 390 nM; to `c1ccc(-c2cc(-c3ccncc3)c(-c3cccs3)[nH]2)cc1`, 120 nM; to `C[S+]([O-])c1ccc(-c2cc(-c3ccnc4ccccc34)c(-c3ccc(F)cc3)[nH]2)cc1` (centres undefined), 114 nM.
Still for that read-out and setting: to `Cc1cc(-c2cc(-c3ccc([S+](C)[O-])cc3)[nH]c2-c2ccc(F)cc2)ccn1` (centres undefined) belongs 6 nM.
For the compound `c1ccc(-c2cc(-c3ccncc3)c(-c3ccncc3)[nH]2)cc1`, in assay [1], the IC50 was 1220 nM. This IC50 lies about 200-fold higher than the previous one.
Compound `COc1ccc(-c2cc(-c3ccncc3)c(-c3ccccc3)[nH]2)cc1` displayed a half-maximal inhibitory concentration (IC50) in assay [1] of 280 nM.
Turning to `COc1ccc2c(c1)c(CC(=O)O)c(C)n2C(=O)c1ccc(Cl)cc1` [INDOMETHACIN], in assay [2], the ID50 is 1 mg kg-1 b.i.d.
`C[S+]([O-])c1ccc(-n2nc(-c3ccncc3)c(-c3ccc(F)cc3)c2O)cc1` (centres undefined): in assay [1], the IC50 amounted to 83 nM.
`N#Cc1ccc(-c2[nH]c(-c3ccccc3)cc2-c2ccncc2)cc1` had an IC50 in assay [1] of 450 nM.
The same measure, in the same setting: in the case of `O=C(O)c1ccc(-c2cc(-c3ccncc3)c(-c3ccccc3)[nH]2)cc1` it was 14 nM; in that of `c1ccc(-c2cc(-c3ccncc3)c(-c3ccccc3)[nH]2)cc1`, 17 nM; in that of `Clc1ccccc1-c1[nH]c(-c2ccccc2)cc1-c1ccncc1`, 500 nM.
`Fc1ccc(-c2cc(-c3ccncc3)c(-c3ccc(F)cc3)[nH]2)cc1` yielded an IC50 in assay [1] of 60 nM.
With `Fc1ccc(-c2oc(-c3ccc(Cl)cc3)cc2-c2ccncc2)cc1`, the concentration for half-maximal inhibition (IC50) in assay [1] came to 630 nM.
The same measure, in the same setting: in the case of `Clc1ccc(-c2cc(-c3ccncc3)c(-c3ccccc3)[nH]2)cc1` it was 510 nM; in that of `Fc1cccc(-c2cc(-c3ccncc3)c(-c3ccccc3)[nH]2)c1`, 42 nM.
The same measure, in the same setting: in the case of `N#Cc1cccc(-c2[nH]c(-c3ccccc3)cc2-c2ccncc2)c1` it was 53 nM; in that of `c1ccc(-c2cc(-c3ccncc3)c(-c3ccoc3)[nH]2)cc1`, 660 nM.
Still for that read-out and setting: to `COc1ccc(OC)c(-c2cc(-c3ccncc3)c(-c3ccc(F)cc3)[nH]2)c1` belongs 1700 nM; to `Nc1ccc(-c2cc(-c3ccncc3)c(-c3ccccc3)[nH]2)cc1`, 28 nM.
In assay [1], `Oc1c(-c2ccncc2)c(-c2ccc(F)cc2)nn1-c1ccc(Cl)cc1` registered a concentration for half-maximal inhibition (IC50) of 500 nM. For the same compound, in assay [3], the Inhibition was 43%.
For `O=c1c(-c2ccc(F)cc2)c(-c2ccncc2)[nH]n1-c1ccc(Cl)cc1`, the IC50 in assay [1] worked out at 35 nM.
`Fc1ccc(-c2[nH]c(-c3ccccc3)cc2-c2ccccc2)cc1` yielded an inhibition in assay [4] of 79%.
With `Fc1ccc(-c2[nH]c(-c3ccccc3)cc2-c2ccncc2)cc1`, 12 nM corresponded to half-maximal inhibition in assay [1] (IC50).
`Fc1ccc(-c2[nH]c(-c3ccc(Cl)cc3)cc2-c2ccncc2)cc1` gave a concentration for half-maximal inhibition (IC50) in assay [1] of 200 nM.

What is called IC50 is the concentration that gives 50% inhibition. A lower IC50 goes with greater potency. In general, Inhibition refers to the change of the read-out against control, counted positive when it falls. The term inhibition denotes the change of the read-out against control, counted positive when it falls. A higher inhibition goes with a response far below the control.
